Values after ≈ are worked out from the molar mass of the structure shown. Where two headings read alike, the source gives them in different places.
Experiments:
[1] = Water-contact angle test; assay type: physicochemical
Source text: (§1) With the 12 combinatorial molecules in hand, we initially examined their hydrophilicity and aqueous solubility. The water-contact angle test gave a clear hydrophilic assessment for these molecules (Table 1 and Supplementary Table 1). The conventional shake-flask method was employed to obtain the thermodynamic aqueous solubility data[29]. […]. In pursuit of both improving the hydrophilicity and aqueous solubility, we planned to introduce dual N/O heteroatoms to C1 skeleton as listed in group 2. […]. The turning point comes to C9 that doping two N atoms on the phenanthrene subcomponent besides the oxazole part. A water contact angle of 0° indicates the high hydrophilicity of C9. […].
Supplementary Table 1. Collected water contact angles for C2 – C12 […]

[2] = Hansen solubility parameters (HSP) from rated solvent library, optimized in HSPiP; Ra and RED versus water; assay type: physicochemical; conditions: for Water2 Ra: distance to water HSP of dense condition (18.1, 17.1, 16.9); for Water1 Ra: distance to water HSP of dilute condition (15.1, 20.4, 16.5); for δD (dispersion solubility parameter) / δH (hydrogen bonding solubility parameter) / δP (polar solubility parameter) / R0 (intrinsic distance parameter): experimentally rated solvent library, HSPiP; for R0 (intrinsic distance parameter): unit assumed; for Water2 RED (Ra/R0): water HSP of dense condition (18.1, 17.1, 16.9); for Water1 RED (Ra/R0): water HSP of dilute condition (15.1, 20.4, 16.5)
Source text: To figure out why the doped N/O heteroatoms on the aromatic skeletons can both influence their hydrophilicity and aqueous solubility, we employed the Hansen solubility parameters (HSP) to interpret this phenomenon. This method developed by Charles Hansen et al.[30] has found broad use both in academia and industry for predicting the compatibility or affinity between two substances[31]–[34]. The key elements of HSP approach are three partial solubility parameters consisting of δD, δP, and δH, in which δD represents the dispersion solubility parameter, δP represents the polar solubility parameter, and δH represents the hydrogen bonding solubility parameter, respectively.
The three partial parameters define a three-dimensional coordinate for substances in a virtual solubility space (Hanse space). In principle, the closer the two coordinates of HSP are, the more likely the substances will dissolve in each other, which is consistent with the notion of “like dissolves like” rule. To better describe the degree of closeness, another solubility parameter “distance” (Ra) is introduced as follows:1 Ra2=4(δD2−δD1)^2+(δP2−δP1)^2+(δH2−δH1)^2 […]
Meanwhile, each substance has an intrinsic distance parameter R0, together with HSP as a center point that would define a solubility sphere in Hansen space. If the HSP coordinate of one substance is located inside the sphere of another substance, it indicates a high affinity between them. For solute and solvent cases, a dissolution process may happen. Otherwise, a low affinity is inferred if one substance is excluded from the sphere of another.
The total HSP data set of C1-C12 was experimentally tested and optimized from a combination of solvents library and listed in Table 1 (Supplementary Methods 1.3, Supplementary Fig. 1). […] For the unique H2O, there are three sets of HSP for different conditions. The first is the HSP of single-molecule (pure) water (15.5, 16.0, 42.3), in which the δH is more salient than δD and δP, it well explains the strong hydrogen bonding interactions between water molecules. However, its use in the prediction of solubility in water is not deemed appropriate in most cases. The second and third sets of HSP for water are those derived from solubility data and should be chosen case by case. The second set of HSP (15.1, 20.4, 16.5) was derived from experimental data set exceeding 1% soluble compounds in water, which may be appropriate for the diluted solute case (denoted as Water1). The third set of HSP (18.1, 17.1, 16.9) was derived from experimental data set of complete miscible compounds with water, which may be appropriate for the dense solute case (denoted as Water2).
1.3 Determination of solubility-related parameters […]
(2) Determination of Hansen solubility parameters (HSP)3
A collection of solvents was used to estimate the HSPs values of C2–C12, which includes dichloromethane, chloroform, toluene, diethyl ether, hexane, dioxane, pyridine, tetrahydrofuran, dimethyl sulfoxide, N, N-dimethyl formamide, acetone, acetonitrile, methanol and ethanol. If the specific solvent (0.5 mL) can dissolve at least 1.0 mg of certain solute would be rated as good solvent, otherwise as bad solvent. For C1, it’s expected that this molecule can only dissolve in nonpolar solvents (recrystallized from CCl4 according to literature report). We […]
methanol, ethanol and water would be bad solvents. These rated solvent s datasets for C1–C12 were imported to HSPiP software that developed by Dr. Hansen, Abbott and Hiroshi to optimize and obtain three partial HSPs values.

[3] = Shake-flask thermodynamic aqueous solubility (1H NMR quantification); assay type: physicochemical; conditions: for solubility at 24 h: water, thermodynamic from solid, D2O, room temperature
Source text: as §1
1.3 Determination of solubility-related parameters
(1) Measurement of aqueous solubility
We applied the classic shake-flask method to determine the solubility data of C2–C12 in water. Typically, an excess amount of C2 was added to 1.0 mL of D2O, and the mixture was stirred at room temperature for 24 h. After that, the phase separation of saturated solution was finished through centrifugation. 1H NMR technology was applied to quantitatively analysis the concentration of solute using tetrahydrofuran as internal standard. Actually, we didn’t synthesize C1 to obtain its solubility data from experimental method because it’s obvious that this compound would be insoluble in water from reasonable judgement. Alternatively, due to its high hydrophobicity and measured water solubility data from C2–C8 counterpart, we can estimate this value must be at least lower than 0.1 mg / mL as well. […]

[4] = Apparent association constants by 1H NMR shift analysis (dimeric model); assay type: physicochemical; conditions: for Ka (CHCl3), apparent association constant: CHCl3, dimeric model; for Ka (MeOH-H2O), apparent association constant: MeOH-H2O (legend: H2O), dimeric model
Source text: As is known, high concentration as a driving force to promote the molecular aggregation in solution is ubiquitous and well recognized[37],[38]. To compare the high concentration induced aggregation phenomenon with our case, we measured their apparent association constants (Ka) by ^1H NMR shift analysis after simplifying the aggregates to a dimeric model[39] (Supplementary Figs. 17–28). As listed in Fig. 3b, C10-C12 in chloroform display relatively weak association ability induced by high concentration factor. […] Meanwhile, the ^13C NMR spectra gave more informative details about C10-C12 in different existing states (Fig. 3c, Supplementary Figs. 13 and 14). […] In comparison, these signals became broadened and moved to upfield with a maximal 3.19 ppm shift in D2O conditions, which was almost in consistent with the solid-state ^13C magic-angle spinning (MAS) NMR spectrum despite its much broader signature. Moreover, the luminescent emissions of C10-C12 in various solvent ratios and solid-state were also screened (Fig. 3d, Supplementary Figs. 33 and 34). […] Unexpectedly, the maximal emissions in water are close to the solid state of C10-C12 (e.g., 472 nm in water versus 486 nm in solid for C10), indicative of a homologous excited-state energy transfer pathway.

[5] = Kinetic radii from DOSY NMR (Stokes-Einstein equation); assay type: physicochemical
[6] = AFM measurement of nanoparticles in wet conditions; assay type: physicochemical; conditions: aqueous solution 1.5 mM on mica
Description: To further confirm the aggregation-induced nanoparticles formed in water, we carried out atomic force microscope (AFM) measurement of C10-C12 in wet conditions[35] (Fig. 2c and Supplementary Figs. 29–31). Typically, a drop of aqueous solution of C11 (1.5 mM) was cast on a freshly cleaved mica surface and subjected to test. […] 2D and 3D height profiles gave a particle size around 8 nm.

[7] = parameters: method as in hazardous substances data bank; conditions: 25 °C; ref hazardous substances data bank; cited from earlier work

| SMILES | Water contact angle ([1]; C1 not synthesized, deduced and estimated by comparison with C2) [°] | Water2 Ra [2] [MPa^0.5] | Water1 Ra [2] [MPa^0.5] | solubility at 24 h [3] [µg/mL] | Water contact angle ([1]; C2-C12) [°] | δD (dispersion solubility parameter) [2] | δH (hydrogen bonding solubility parameter) [2] | δP (polar solubility parameter) [2] | R0 (intrinsic distance parameter) [2] [MPa^0.5] | Water2 RED (Ra/R0) [2] | Aqueous solubility [3] | Water1 RED (Ra/R0) [2] | Ka (CHCl3), apparent association constant [4] | Ka (MeOH-H2O), apparent association constant [4] | kinetic radius, DOSY ([5]; D2O) [nm] | kinetic radius, DOSY ([5]; MeOD-d4) [nm] | average diameter of nanoparticles (AFM statistical analysis) [6] [nm] | Aqueous solubility [7] |
| --- | --- | --- | --- | --- | --- | --- | --- | --- | --- | --- | --- | --- | --- | --- | --- | --- | --- | --- |
| C1=C(c2ccccc2)Cc2c1c1ccccc1c1ccccc21 [C1, 2-phenyl-1H-cyclophen[l]phenanthrene, reference compound] | >140 | 20.8 | 23.8 | – | – | – | – | – | – | – | – | – | – | – | – | – | – | – |
| c1ccc(-c2nc3c4ccccc4c4ccccc4c3[nH]2)cc1 [C2] | – | 9.9 | 13.3 | < 100 | 140.6 | 18.5 (MPa)^0.5 | 8.1 (MPa)^0.5 | 12.6 (MPa)^0.5 | 4.5 | – | – | – | – | – | – | – | – | – |
| c1ccc(-c2nc3c4cccnc4c4ncccc4c3[nH]2)cc1 [C3] | – | 10.5 | 14.1 | < 100 | 0 | 17.9 (MPa)^0.5 | 10.1 (MPa)^0.5 | 9.1 (MPa)^0.5 | 5.4 | 1.9 | – | – | – | – | – | – | – | – |
| c1cnc2c(c1)c1nc(-c3ccncc3)[nH]c1c1cccnc12 [C4] | – | 3.8 | 5.5 | < 100 | 0 | 16.4 (MPa)^0.5 | 16.1 (MPa)^0.5 | 15.6 (MPa)^0.5 | 7.5 | – | – | – | – | – | – | – | – | – |
| c1cncc(-c2nc3c4cccnc4c4ncccc4c3[nH]2)c1 [C5] | – | 3.7 | 5.3 | < 100 | 0 | 16.4 (MPa)^0.5 | 16.5 (MPa)^0.5 | 15.8 (MPa)^0.5 | 7 | – | – | – | – | – | – | – | – | – |
| c1ccc(-c2nc3c4cccnc4c4ncccc4c3[nH]2)nc1 [C6] | – | 5.9 | 7.9 | < 100 | 0 | 16.1 (MPa)^0.5 | 16.8 (MPa)^0.5 | 12.8 (MPa)^0.5 | 7.9 | – | – | – | – | – | – | – | – | – |
| c1ccc(-c2nc3c4ccccc4c4ccccc4c3o2)cc1 [C7] | – | 13.9 | 18.2 | < 100 | 135.2 | 19.5 (MPa)^0.5 | 7.5 (MPa)^0.5 | 7.2 (MPa)^0.5 | 6.6 | – | barely soluble in water | 2.8 | – | – | – | – | – | – |
| c1ccc(-c2nc3c4ccccc4c4ccccc4c3o2)nc1 [C8] | – | 13.8 | 18.1 | < 100 | 128.6 | 19.4 (MPa)^0.5 | 7.8 (MPa)^0.5 | 7.0 (MPa)^0.5 | 8.8 | 1.6 | barely soluble in water | 2.1 | – | – | – | – | – | – |
| c1ccc(-c2nc3c4cccnc4c4ncccc4c3o2)cc1 [C9] | – | 5.1 | 10.8 | 900 (≈ 3.03 mM) | 0 | 18.6 (MPa)^0.5 | 15.5 (MPa)^0.5 | 12.3 (MPa)^0.5 | 10 | – | slightly soluble | 1.1 | – | – | – | – | – | – |
| c1cnc2c(c1)c1nc(-c3ccncc3)oc1c1cccnc12 [C10] | – | 10.8 | 15 | 40000 (≈ 134 mM) | 0 | 17.7 (MPa)^0.5 | 15.8 (MPa)^0.5 | 6.3 (MPa)^0.5 | 10.7 | – | – | 1.4 | 8(2) M^-1 | 772(47) M^-1 | – | – | – | – |
| c1cncc(-c2nc3c4cccnc4c4ncccc4c3o2)c1 [C11] | – | 10.2 | 14.9 | 13000 (≈ 43.6 mM) | 0 | 18.3 (MPa)^0.5 | 15.9 (MPa)^0.5 | 7.0 (MPa)^0.5 | 11 | – | – | 1.4 | 6(1) M^-1 | 850(50) M^-1 | 3.98 | 0.65 | 8.32 | – |
| c1ccc(-c2nc3c4cccnc4c4ncccc4c3o2)nc1 [C12] | – | 10.9 | 16.4 | 150000 (≈ 503 mM) | 0 | 19.4 (MPa)^0.5 | 17.2 (MPa)^0.5 | 6.5 (MPa)^0.5 | 12.3 | – | – | 1.3 | 13(1) M^-1 | 918(77) M^-1 | – | – | – | – |
| c1cnccn1 [pyrazine] | – | – | – | – | – | – | – | – | – | – | – | – | – | – | – | – | – | freely soluble in water |

From PMC9814590, “Precise heteroatom doping determines aqueous solubility and self-assembly behaviors for polycyclic aromatic skeletons” (Communications Chemistry, 2022)
